From patent US7820106B2, “Sensor platform, apparatus incorporating the platform and process using the platform” (Novartis AG, priority 1999, dated 2010)
Where a name gives a salt, the structure may show the parent alone. {Cy5} = Cy5 fluorescent dye label

Experiments:
[1] = system: cPM and cMM capture oligonucleotides; test: Oligonucleotide microchip SNP discrimination, cPM versus cMM spots; format: binding; conditions: 30 pM analyte, 30 min incubation, room temperature
Protocol: (§1) Sensor platforms (dimensions 18×18 mm2) of the type described with reference to FIG. 2 we first sonicated twice in chlororform (FLUKA, “purum”) and subsequently twice in isopropanol (Merck, “Uvasol”), each 15 min. […] O-xylene was heated to 75° C. […] (stirring). Subsequently, the platforms were washed three times with fresh acetonitrile (Fluka, “HPLC grade”) each for 15 min. Finally the platforms were dried and stored under vacuum. b. Immobilization of Capture Elements
Two different amino-modified oligonucleotides (capture probes) were printed in a checkerboard-like layout (5×5=25 spots) onto the silanized platforms. A GMS 417 ring-pin arrayer was used for the printing (Genetic Microsystems, Boston, Mass.). The concentration of the oligonucleotides used as capture molecules was 100 nmol/ml. Diameter of the spots was 125 micrometer with 500 micrometer centre-to-centre distance. The 2 oligonucleotides were called cPM (“capture perfect match”) and cMM (“capture mismatch”) and differ only in one base:
cPM and cMM were labeled with an amino group at the 5′ end which enables covalent binding of the oligonucleotides to the epoxy-functionalized platforms. […] Next day the chips were dried and then washed with 1 ml of aqueous 50% urea solution. Alternatively, an aqueous bovine serum albumine solution (BSA, 1 mg/ml) was used. After blocking the chips were flushed with deionized water and then dried with nitrogen flow. c. Detection Set-Up The CCD set-up described in the previous example was used. d. Chip Cartridge The cartridge described in the previous example was used. e. Analytes/Samples […]
The concentration of the analyte solutions was 30 pM each. f. […] After 30 min of incubation, the platform was washed with 1 ml of HB and a fluorescence image (“PM” in FIG. 9a) was taken in the resonance position of the chip. Subsequently, the bound fluorescence labeled oligonucleotides were removed (stripped) by injection of 2×1 ml of an aqueous 50% urea solution with 2 min of delay between the injections. After additional 2 min the chip was washed by injection of 2×1 ml HB with 2 min delay between the injections and a fluorescence image (“regeneration” in FIG. 9b) was taken in the resonance position of the chip. […] After 30 min of incubation, the platform was again washed with 1 ml of 1B and a fluorescence image (“MM” in FIG. 9c) was taken in the resonance position of the chip. […] Data Processing The mean intensity of the 2 different groups of capture spots (cPM and cMM) was calculated for both experiments (incubation of 30 pM PM analyte and 30 pM MM analyte). In addition, the difference of the mean intensity cPM-cMM and the ratio cPM/cMM was calculated. h. […]

[2] = system: cMM (capture mismatch) oligonucleotide; test: Oligonucleotide microchip hybridization (SNP discrimination), cMM capture spots; format: binding; conditions: 30 pM analyte, 30 min incubation, room temperature, fluorescence at resonance position
Protocol: as §1
(§2) Two different amino-modified oligonucleotides (capture probes) were printed in a checkerboard-like layout (5×5=25 spots) onto the silanized platforms. […]
(§3) The concentration of the analyte solutions was 30 pM each. f. […] After 30 min of incubation, the platform was washed with 1 ml of HB and a fluorescence image (“PM” in FIG. 9a) was taken in the resonance position of the chip. Subsequently, the bound fluorescence labeled oligonucleotides were removed (stripped) by injection of 2×1 ml of an aqueous 50% urea solution with 2 min of delay between the injections. After additional 2 min the chip was washed by injection of 2×1 ml HB with 2 min delay between the injections and a fluorescence image (“regeneration” in FIG. 9b) was taken in the resonance position of the chip. […] After 30 min of incubation, the platform was again washed with 1 ml of 1B and a fluorescence image (“MM” in FIG. 9c) was taken in the resonance position of the chip. […]

[3] = system: cPM (capture perfect match) oligonucleotide; test: Oligonucleotide microchip hybridization (SNP discrimination), cPM capture spots; format: binding; conditions: 30 pM analyte, 30 min incubation, room temperature, fluorescence at resonance position
Protocol: as §1, §2, §3

[4] = system: CYP 450 1A1 (rat); test: Gene expression analysis on ER chip: CYP 450 induction in rat liver; conditions: rat liver cDNA, 80 mg/kg daily on 4 consecutive days, normalized treated/control, mean of 10 replicates
Protocol: (§4) Sensor platforms (dimensions 18×18 mm^2) of the type described with reference to FIG. 2 wee first sonicated twice in chloroform (FLUKA, “purriss.”) and subsequently twice in isopropanol (Merck, “Uvasol”); each for 15 min. The platform were then dried in vacuum and cleaned in a UV cleaner for 30 min (Boeckel industries Inc, model 135500). O-xylene was heated to 75° C. (stirring) and 2% v/v 3-glycidoxypropyl trimethoxysilane (Fluka, “purum”) as well as 0.2% v/v N-ethyldiisopropylamine (Fluka, “purum”) were added to the heated solvent (stirring). The platforms were mounted into racks and then incubated for 7 h in the solution at 75° C. (stirring). Subsequently, the platforms were sonicated three times in fresh acetonitrile (Fluka, “HPLC grade”), each for 15 min. The platforms were then sonicated in a solution of 2% v/v 3-amino-1-propanol (Fluka, “purum”) in acetonitrile for 15 min and then incubated in the same solution over night at room temperature (stirring). Next day, the platforms were first sonicated three times for 15 min in fresh isopropanol (Fluka, “HPLC grade”) and then three times for 15 min in flesh methanol (Merck, “Uvasol”). Finally, the platforms were dried and stored in vacuum. b) Immobilization of Recognition Elements Arrays consisting of 10 different cDNAs (each cDNA 10 replicates: CYP 450 1A1, CYP 450 2B1 EST., CYP 450 2B1, CYP 450 2B2, CYP 450 3A1 human, CYP 450 3A2, CYP 450 4A1, β-actin, GAPDH, external standard) were printed on the platforms with an ink-jet printer (Microdrop GmbH, Norderstedt, Germany). The concentration of the cDNA solutions was 50 ng/μL. The diameter (10 ink-jet droplets/position) was about 250 μm and pitch of the spots was about 500 μm. Therefore, the overall dimension of the 10×10 arrays was about 5×5 mm^2. The arrays were printed in the centre of the platforms with the dimensions (18×18 mm^2). Subsequently, the platforms were incubated over night in a closed container in saturated water vapor atmosphere. Next day, the incubated chips can be baked for a defined period, say 1 minute at 80° C.

[5] = system: CYP 450 4A1 (rat); test: as above; conditions: rat liver cDNA, 80 mg/kg daily on 4 consecutive days, normalized treated/control, mean of 10 replicates
Protocol: as §4

[6] = system: CYP 450 2B1 EST.(rat); test: as above; conditions: rat liver cDNA, 80 mg/kg daily on 4 consecutive days, normalized treated/control, mean of 10 replicates
Protocol: as §4

[7] = system: CYP 450 3A2 (rat); test: as above; conditions: rat liver cDNA, 80 mg/kg daily on 4 consecutive days, normalized treated/control, mean of 10 replicates
Protocol: as §4

[8] = system: GAPDH (rat); test: as above; conditions: rat liver cDNA, 80 mg/kg daily on 4 consecutive days, normalized treated/control, mean of 10 replicates
Protocol: as §4

[9] = system: CYP 450 2B1 (rat); test: as above; conditions: rat liver cDNA, 80 mg/kg daily on 4 consecutive days, normalized treated/control, mean of 10 replicates
Protocol: as §4

[10] = system: β-actin (rat); test: as above; conditions: rat liver cDNA, 80 mg/kg daily on 4 consecutive days, normalized treated/control, mean of 10 replicates
Protocol: as §4

[11] = system: CYP 450 2B2 (rat); test: as above; conditions: rat liver cDNA, 80 mg/kg daily on 4 consecutive days, normalized treated/control, mean of 10 replicates
Protocol: as §4

[12] = system: CYP 450 3A1 (human); test: as above; conditions: rat liver cDNA, 80 mg/kg daily on 4 consecutive days, normalized treated/control, mean of 10 replicates
Protocol: as §4

Row | Compound | difference of the mean intensity cPM − cMM [1] | ratio cPM/cMM of mean intensity [1] | mean intensity, cMM spots [2] | mean intensity, cPM spots [3] | Fold change CYP 450 1A1 (rat) [4] | Fold change CYP 450 4A1 (rat) [5] | Fold change CYP 450 2B1 EST.(rat) [6] | Fold change CYP 450 3A2 (rat) [7] | Fold change GAPDH (rat) [8] | Fold change CYP 450 2B1 (rat) [9] | Fold change β-actin (rat) [10] | Fold change CYP 450 2B2 (rat) [11] | Fold change CYP 450 3A1 (human) [12]
1 | Cy5-5′GTGTTAAGGTGT3′ (NTGTTAAGGTGT; 5' {Cy5}, sugars by position, backbone and the base at N not given here) [PM] | 1116 counts | 48 | 24 counts | 1140 counts |  |  |  |  |  |  |  |  | 
2 | CCC1(c2ccccc2)C(=O)NC(=O)NC1=O [phenobarbital, sodium salt] |  |  |  |  | 1.6 | 1.6 | 16 | 2.5 | 2.3 | 25 | 2.1 | 32 | 3.2
3 | Cy5-5′GTGTTGAGGTGT3′ (NTGTTGAGGTGT; 5' {Cy5}, sugars by position, backbone and the base at N not given here) [MM] | −1371 counts | 0.34 | 2075 counts | 704 counts |  |  |  |  |  |  |  |  | 
